Test results as given in US11339130B1 (Blade Therapeutics, Inc., priority 2016, dated 2022).
pIC50: −log10 of the molar value.

Experiments:
[1] = system: Calpain activity in SH-SY5Y cells (SBDP-150); assay: SH-SY5Y Spectrin western blot assay (SBDP-150 breakdown product, A23187-induced); type: cell-based; settings: Homo sapiens; Column D; SH-SY5Y cells, A23187-induced SBDP-150; read-out: SH-SY5Y Spectrin IC50
human calpain 9 = target: T1, human calpain 9 (Homo sapiens, UniProt O14815); assay: Calpain binding: crystal structure interaction distances, human calpain 9; settings: for Interaction Distances P1-Gly95 / Interaction Distances P1-Gly189 / Interaction Distances P1-Lys188 / Interaction Distances P1-Ser242 / Interaction Distances P2-Ala255 / Interaction Distances P2-Gly190 / Interaction Distances P2-Gly253 / Interaction Distances P2-His254 / Interaction Distances P2-Phe233 / Interaction Distances P3-Gly189 / Interaction Distances P3-Gly190 / Interaction Distances P3-Ser191: non-polar interactions with human calpain 9; for Interaction Distances R^10-Gly253 / Interaction Distances R^11-Gly190 / Interaction Distances R^12-His254 / Interaction Distances R^13-Cys97 / Interaction Distances R^13-Gln91: polar interactions with human calpain 9
T1 construct: human calpain 9, residues 27-347, was over expressed in E. coli BL21 (DE3); hexa-histidine (N); made in house; host or cells: E. coli BL21 (DE3)
T1 sequence (O14815 27-347): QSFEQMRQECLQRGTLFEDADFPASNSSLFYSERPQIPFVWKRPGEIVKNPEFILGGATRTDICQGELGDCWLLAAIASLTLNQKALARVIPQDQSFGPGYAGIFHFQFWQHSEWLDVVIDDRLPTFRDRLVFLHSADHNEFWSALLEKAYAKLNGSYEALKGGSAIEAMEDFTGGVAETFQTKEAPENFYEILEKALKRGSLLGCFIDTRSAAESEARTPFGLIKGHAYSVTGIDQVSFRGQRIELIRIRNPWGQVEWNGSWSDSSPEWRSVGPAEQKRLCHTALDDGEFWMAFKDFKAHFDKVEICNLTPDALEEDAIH
Experimental: Calpain 9 Protein Preparation: N-terminally hexa-histidine-tagged human calpain 9, residues 27-347, was over expressed in E. coli BL21 (DE3) and purified via Ni-NTA and size-exclusion chromatography with yields >10 mg/liter of culture and >99% purity. The calpain 9 sequence is accession number 014815 at uniprot.org.
Calpain 9 Crystallization: A 10 mg/ml solution of rat calpain 1 or human calpain 9 (obtained as described above) was prepared in 50 mM tris (pH 8), 0.5 M NaCl, 1 mM EDTA, 1 mM CaCl2), and 1 mM beta-mercaptoethanol against MCSG1 screen condition C2 (Anatrace, Maumee, Ohio) containing 0.2 M LiSO4, 0.1 M bis-tris (pH 5.5), and 25% PEG 3350. The solution contained 2.5 mM of test compound supplemented with 20% ethylene glycol as a cryo-protectant. The bound protein was crystallized using vapor diffusion, sitting drop, at […]. The space group was P 41 21 2, with unit cell dimensions of 97.2 Å, 97.2 Å, 173.4 Å.
Calpain 9 Crystallography data collection and refinement: Data was collected at the APS synchrotron, beamline 21-ID-F at […]. Reflections were collect between 45.0-2.1 Å with completeness of 100%. Reflection data was analyzed using XDS and Xscale (Heidelberg, Germany). Structure was solved using molecular replacement and was refined with PHENIX (Berkeley, Calif.) to an R value of 0.168, Rfree=0.210.
Key interactions between test compound moieties (with reference to the variables of Formula II) and calpain 1 or calpain 9 residues were determined as set forth in Tables 4-7 below.

| SMILES | pIC50 [1] | Interaction Distances P1-Gly95 (human calpain 9) [Å] | Interaction Distances P1-Gly189 (human calpain 9) [Å] | Interaction Distances P1-Lys188 (human calpain 9) [Å] | Interaction Distances P1-Ser242 (human calpain 9) [Å] | Interaction Distances P2-Ala255 (human calpain 9) [Å] | Interaction Distances P2-Gly190 (human calpain 9) [Å] | Interaction Distances P2-Gly253 (human calpain 9) [Å] | Interaction Distances P2-His254 (human calpain 9) [Å] | Interaction Distances P2-Phe233 (human calpain 9) [Å] | Interaction Distances P3-Gly189 (human calpain 9) [Å] | Interaction Distances P3-Gly190 (human calpain 9) [Å] | Interaction Distances P3-Ser191 (human calpain 9) [Å] | Interaction Distances R^10-Gly253 (human calpain 9) [Å] | Interaction Distances R^11-Gly190 (human calpain 9) [Å] | Interaction Distances R^12-His254 (human calpain 9) [Å] | Interaction Distances R^13-Cys97 (human calpain 9) [Å] | Interaction Distances R^13-Gln91 (human calpain 9) [Å] |
| --- | --- | --- | --- | --- | --- | --- | --- | --- | --- | --- | --- | --- | --- | --- | --- | --- | --- | --- |
| Cn1cc(C(=O)N[C@@H](Cc2ccccc2)C(=O)C(N)=O)c(-c2ccccc2)n1 [Compound 32, (S)—N-(4-amino-3,4-dioxo-1-phenylbutan-2-yl)-1-methyl-3-phenyl-1H-pyrazole-4-carboxamide] | > 5.00 | 4.0 | 3.5 | 3.8 | 3.6 | 4.3 | 3.3 | 3.1 | 4.2 | 3.3 | 3.7 | 3.5 | 4.4 | 3.2 | 2.9 | 2.7 | 2.9 | 2.8 |
| NC(=O)C(=O)[C@H](Cc1ccccc1)NC(=O)c1snnc1-c1ccccc1 [Compound 44, (S)—N-(4-amino-3,4-dioxo-1-phenylbutan-2-yl)-4-phenyl-1,2,3-thiadiazole-5-carboxamide] | 4.60 to 5.00 | 3.6 | 3.4 | 3.7 | 3.7 | 3.9 | 3.0 | 3.4 | 4.2 | 4.4 | 4.0 | 3.3 | 4.2 | 2.9 | 3.2 | 2.5 | 3.0 | 2.8 |
| NC(=O)C(=O)[C@H](Cc1ccccc1)NC(=O)c1cn(C2CC2)nc1-c1ccccc1 [Compound 250, (S)—N-(4-amino-3,4-dioxo-1-phenylbutan-2-yl)-1-cyclopropyl-3-phenyl-1H-pyrazole-4-carboxamide] | 4.60 to 5.00 |  |  |  |  |  |  |  |  |  |  |  |  |  |  |  |  |  |
| CCCC[C@H](NC(=O)c1oc(C)nc1-c1ccccc1)C(=O)C(N)=O [Compound 265, (S)—N-(1-amino-1,2-dioxoheptan-3-yl)-2-methyl-4-phenyloxazole-5-carboxamide] | > 5.00 | 3.7 | 3.7 | 4.4 | 4.0 | 4.1 | 3.2 | 2.9 | 4.2 | 3.3 | 3.8 | 3.4 | 3.8 | 2.9 | 3.2 | 2.4 | 3.1 | 2.9 |
